Reference: the supplement of paper PMC10307832

How the values were obtained:
Experiment in all cases: relative viability (nuclei count vs DMSO), 5 days (fraction); higher = more cells survive
IPA-3 + Alpelisib = compound: C1=CC=C2C(=C1)C=CC(=C2SSC3=C(C=CC4=CC=CC=C43)O)O [IPA-3] + Cc1nc(NC(=O)N2CCC[C@H]2C(N)=O)sc1-c1ccnc(C(C)(C)C(F)(F)F)c1 [Alpelisib] (partner 2 µM)
Outline: (§1)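 Lung cancer cell lines were seeded in 1536-well plates and dosed by pin tool the next day, with either a single drug or a fixed anchor-drug dose combined with five library-drug doses (not always all listed) spaced in √10 steps. Five days later, one step fixed the cells and stained their nuclei (final 0.05% Triton X-100, 1% formaldehyde, 1 ug/ml Hoechst), and nuclei were counted on 4× images. Relative viability is the nuclei count in treated wells divided by the count in vehicle wells, and each value is the median of duplicate plates.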

Doramapimod + Trametinib = compound: Cc1ccc(-n2nc(C(C)(C)C)cc2NC(=O)Nc2ccc(OCCN3CCOCC3)c3ccccc23)cc1 [Doramapimod] + CC(=O)Nc1cccc(-n2c(=O)n(C3CC3)c(=O)c3c(Nc4ccc(I)cc4F)n(C)c(=O)c(C)c32)c1 [Trametinib] (partner 0.02 µM)
Outline: as §1

Doramapimod + Vorinostat = compound: Cc1ccc(-n2nc(C(C)(C)C)cc2NC(=O)Nc2ccc(OCCN3CCOCC3)c3ccccc23)cc1 [Doramapimod] + O=C(CCCCCCC(=O)Nc1ccccc1)NO [Vorinostat] (partner 1 µM)
Outline: as §1

RAF265 + Dasatinib = compound: Cn1c(Nc2ccc(C(F)(F)F)cc2)nc2cc(Oc3ccnc(-c4ncc(C(F)(F)F)[nH]4)c3)ccc21 [RAF265] + Cc1nc(Nc2ncc(C(=O)Nc3c(C)cccc3Cl)s2)cc(N2CCN(CCO)CC2)n1 [Dasatinib] (partner 0.075 µM)
Outline: as §1

Cell Line	relative viability (IPA-3 + Alpelisib; first compound 0.2 µM)	relative viability (IPA-3 + Alpelisib; first compound 0.6325 µM)	relative viability (IPA-3 + Alpelisib; first compound 2 µM)	relative viability (IPA-3 + Alpelisib; first compound 6.325 µM)	relative viability (IPA-3 + Alpelisib; first compound 20 µM)	relative viability (Doramapimod + Trametinib; first compound 0.02 µM)	relative viability (Doramapimod + Trametinib; first compound 0.06325 µM)	relative viability (Doramapimod + Trametinib; first compound 0.2 µM)	relative viability (Doramapimod + Trametinib; first compound 0.6325 µM)	relative viability (Doramapimod + Trametinib; first compound 2 µM)	relative viability (Doramapimod + Vorinostat; first compound 0.02 µM)	relative viability (Doramapimod + Vorinostat; first compound 0.06325 µM)	relative viability (Doramapimod + Vorinostat; first compound 0.2 µM)	relative viability (Doramapimod + Vorinostat; first compound 0.6325 µM)	relative viability (Doramapimod + Vorinostat; first compound 2 µM)	relative viability (RAF265 + Dasatinib; first compound 0.01 µM)	relative viability (RAF265 + Dasatinib; first compound 0.03162 µM)	relative viability (RAF265 + Dasatinib; first compound 0.1 µM)	relative viability (RAF265 + Dasatinib; first compound 0.3162 µM)	relative viability (RAF265 + Dasatinib; first compound 1 µM)
NCI-H650	1.43	1.11	1.18	1.04	1.55	0.963	0.977	0.988	1.05	0.978	0.534	0.568	0.423	0.414	0.456	0.464	0.429	0.369	0.265	0.259
CAL-12T	1.38	1.14	1.18	0.999	1.27	0.333	0.325	0.342	0.402	0.297	0.621	0.787	0.713	0.945	0.754	0.313	0.312	0.191	0.196	0.103
NCI-H838	1.25	0.948	1.05	1.06	1.16	0.493	0.549	0.506	0.56	0.411	0.749	0.749	0.766	0.808	0.726	0.332	0.3	0.288	0.256	0.256
NCI-H2228	0.948	0.785	0.884	0.68	0.51	0.391	0.44	0.46	0.519	0.484	0.588	0.91	0.496	0.894	0.516	0.484	0.535	0.397	0.179	0.139
RERF-LC-KJ	0.933	0.807	0.83	0.668	0.928	0.969	0.881	0.901	0.984	0.885	0.785	0.715	0.741	0.427	0.729	0.822	0.735	0.658	0.456	0.4
NCI-H661	0.693	0.682	0.801	0.765	1.07	0.642	0.58	0.598	0.732	0.512	0.815	0.74	0.797	0.788	0.767	0.925	0.771	0.546	0.598	0.42
HCC-366	0.499	0.425	0.432	0.477	0.333	0.309	0.248	0.259	0.263	0.212	0.329	0.421	0.44	0.42	0.32	0.724	0.627	0.664	0.583	0.511
SK-LU-1	1.49		0.974	0.859	0.739	0.469	0.593	0.588	0.624	0.555	0.944	0.75	0.824	0.933	0.867	0.177	0.177	0.166	0.181	0.137
A-427	1.11	0.993	1.11	1.08	1.14	0.763	0.714	0.79		0.619	0.905	0.889	0.904		0.904	0.641	0.615	0.685	0.469	0.131
SW 1573	0.891	0.777	0.8	0.726	0.988	0.524	0.429	0.451	0.452	0.514	0.9	0.549	0.581	0.791	0.539	0.54	0.442	0.31	0.29	0.21
NCI-H322M	0.867	0.823	0.759	0.0386	0.901	0.429	0.519	0.541	0.524	0.498	0.889	0.943	0.979	0.998	0.94	0.267	0.278	0.229	0.303	0.213
LK-2	1.13	1.02	1.19	1.19	1.22	0.587	0.727	0.715	0.31	0.647	0.283	0.296	0.266	0.242	0.29	0.272	0.295	0.291	0.394	0.213
NCI-H2023	0.737	0.636	0.575	0.628	0.768	0.493	0.447	0.489	0.634	0.548	0.718	0.664	0.556	0.607	0.519	0.601	0.562	0.516	0.419	0.365
NCI-H596	0.527	0.562	0.475	0.523	0.558	0.802	0.845	0.915	0.852	0.806	0.643	0.672	0.616	0.605	0.561	0.63	0.76	0.582	0.612	0.366
SK-MES-1	1.17	0.88	0.868		0.951	0.55	0.56	0.477	0.519	0.483	1.21	1.09	1.07	1.12	1.11	0.482	0.203	0.164	0.171	0.157
NCI-H1793	0.786	0.677	0.757	0.739	0.785	0.418	0.435	0.408	0.377	0.406	0.718	0.708	0.673	0.749	0.519	0.486	0.401	0.361		0.227
